Experimental data published in the NIST ThermoML archive (doi:10.1016/j.fluid.2018.05.028).

Experiment: xn = mol fraction of the nth substance listed
Conditions: 101 kPa, Liquid; for speed of sound: Single path-length method; for mass density: Vibrating tube method; for viscosity: Concentric cylinders viscometry

CCCCCCCC/C=C\CCCCCCCC(=O)OCC [ethyl (Z)-9-octadeceneoate] + CCCO
Conditions | mass density [kg/m3] | speed of sound [m/s] | viscosity [mPa·s]
318.15 K, x2 = 0 | 850.78 | – | –
318.15 K, x2 = 0.1 | 848.97 | – | –
318.15 K, x2 = 0.2 | 846.91 | – | –
318.15 K, x2 = 0.3 | 844.5 | – | –
318.15 K, x2 = 0.4 | 841.62 | – | –
318.15 K, x2 = 0.5 | 838.06 | 1272.1 | –
318.15 K, x2 = 0.6 | 833.53 | 1260.7 | –
318.15 K, x2 = 0.7 | 827.44 | 1245.5 | –
318.15 K, x2 = 0.8 | 818.94 | 1224.5 | –
318.15 K, x2 = 0.9 | 805.97 | 1191.9 | –
323.15 K, x2 = 0 | 847.17 | 1288.9 | 3.214
323.15 K, x2 = 0.1 | 845.32 | 1284.2 | 3.036
323.15 K, x2 = 0.2 | 843.22 | 1278.4 | 2.871
323.15 K, x2 = 0.3 | 840.76 | 1272 | 2.712
323.15 K, x2 = 0.4 | 837.83 | 1264.2 | 2.542
323.15 K, x2 = 0.5 | 834.21 | 1254.8 | 2.36
323.15 K, x2 = 0.6 | 829.63 | 1243.3 | 2.163
323.15 K, x2 = 0.7 | 823.48 | 1228.1 | 1.945
323.15 K, x2 = 0.8 | 814.91 | 1207.2 | 1.704
323.15 K, x2 = 0.9 | 801.87 | 1174.8 | 1.433
328.15 K, x2 = 0 | 843.58 | 1271.9 | 2.921
328.15 K, x2 = 0.1 | 841.67 | 1267.1 | 2.762
328.15 K, x2 = 0.2 | 839.52 | 1261.3 | 2.612
328.15 K, x2 = 0.3 | 837.01 | 1254.8 | 2.467
328.15 K, x2 = 0.4 | 834.04 | 1247.1 | 2.312
328.15 K, x2 = 0.5 | 830.37 | 1237.6 | 2.146
328.15 K, x2 = 0.6 | 825.72 | 1226.1 | 1.969
328.15 K, x2 = 0.7 | 819.5 | 1210.8 | 1.768
328.15 K, x2 = 0.8 | 810.86 | 1190 | 1.55
328.15 K, x2 = 0.9 | 797.72 | 1157.7 | 1.301
333.15 K, x2 = 0 | 839.98 | 1255.2 | 2.643
333.15 K, x2 = 0.1 | 838.03 | 1250.2 | 2.502
333.15 K, x2 = 0.2 | 835.83 | 1244.3 | 2.366
333.15 K, x2 = 0.3 | 833.26 | 1237.8 | 2.236
333.15 K, x2 = 0.4 | 830.24 | 1230 | 2.098
333.15 K, x2 = 0.5 | 826.5 | 1220.5 | 1.948
333.15 K, x2 = 0.6 | 821.79 | 1208.9 | 1.792
333.15 K, x2 = 0.7 | 815.49 | 1193.6 | 1.611
333.15 K, x2 = 0.8 | 806.76 | 1172.8 | 1.413
333.15 K, x2 = 0.9 | 793.52 | 1140.6 | 1.185
338.15 K, x2 = 0 | 836.39 | 1238.6 | 2.448
338.15 K, x2 = 0.1 | 834.39 | 1233.4 | 2.317
338.15 K, x2 = 0.2 | 832.14 | 1227.5 | 2.191
338.15 K, x2 = 0.3 | 829.51 | 1220.9 | 2.069
338.15 K, x2 = 0.4 | 826.42 | 1213 | 1.938
338.15 K, x2 = 0.5 | 822.62 | 1203.5 | 1.796
338.15 K, x2 = 0.6 | 817.84 | 1191.8 | 1.649
338.15 K, x2 = 0.7 | 811.45 | 1176.5 | 1.477
338.15 K, x2 = 0.8 | 802.63 | 1155.6 | 1.294
338.15 K, x2 = 0.9 | 789.27 | 1123.5 | 1.08
343.15 K, x2 = 0 | 832.81 | 1222.5 | 2.254
343.15 K, x2 = 0.1 | 830.76 | 1216.9 | 2.135
343.15 K, x2 = 0.2 | 828.45 | 1210.9 | 2.018
343.15 K, x2 = 0.3 | 825.76 | 1204.2 | 1.905
343.15 K, x2 = 0.4 | 822.6 | 1196.2 | 1.784
343.15 K, x2 = 0.5 | 818.73 | 1186.6 | 1.65
343.15 K, x2 = 0.6 | 813.87 | 1174.9 | 1.515
343.15 K, x2 = 0.7 | 807.39 | 1159.5 | 1.354
343.15 K, x2 = 0.8 | 798.46 | 1138.5 | 1.185
343.15 K, x2 = 0.9 | 784.97 | 1106.3 | 0.9873
